Assay results published in US10344019B2 (priority 2010, dated 2019).

Key:
Format in all cases: cell-based
[1] = tested on: HCV 2a Rluc cells (NS5A chimeric genotype 2a JFH-1 replicon with genotype 2a J6 strain NS5A gene, M31 present); assay: HCV replicon reporter assay, genotype 2a J6 (M31 present); conditions: Hepatitis C virus, read-out: 2a J6
Method in brief: (§1)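 Replicon cells stably carrying the listed RLuc-encoding dicistronic replicons were seeded and treated with DMSO serial dilutions of compound (10 mM stocks) diluted into culture medium. After 72 h, cells were lysed and Renilla luciferase activity measured. EC50 was derived by non-linear regression.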

[2] = tested on: HCV 2a JFH-1 Rluc cells (dicistronic genotype 2a JFH-1 replicon, RLuc reporter); assay: microbe, parasite or virus in culture; conditions: Hepatitis C virus, genotype 2a JFH-1 RLuc replicon; read-out: 2a JFH
Method in brief: as §1

[3] = tested on: HCV 4a Rluc cells (NS5A chimeric genotype 1b Con1 replicon with genotype 4a NS5A gene); assay: microbe, parasite or virus in culture; conditions: Hepatitis C virus, read-out: 4a
Method in brief: as §1

[4] = tested on: HCV 1b RLuc cells (dicistronic genotype 1b Con1 replicon, RLuc reporter); assay: microbe, parasite or virus in culture; conditions: Hepatitis C virus, read-out: 1b (nM)
Method in brief: as §1

[5] = tested on: HCV 1a RLuc cells (dicistronic genotype 1a H77 replicon, RLuc reporter); assay: microbe, parasite or virus in culture; conditions: Hepatitis C virus, genotype 1a H77 RLuc replicon; read-out: 1a
Method in brief: as §1

[6] = tested on: HCV 2b Rluc cells (NS5A chimeric genotype 2a JFH-1 replicon with genotype 2b MD2b-1 NS5A gene, M31 present); assay: microbe, parasite or virus in culture; conditions: Hepatitis C virus, read-out: 2b
Method in brief: as §1

COC[C@H]1C[C@@H](c2ncc(-c3ccc(-c4ccc(-c5cnc([C@@H]6C[C@H](C)CN6C(=O)[C@H](NC(=O)C6CC6)c6ccccc6)[nH]5)cc4)cc3)[nH]2)N(C(=O)[C@@H](NC(=O)OC)C(C)C)C1 [Example 557]
EC50 [1]: 0.001 to 0.999 nM
EC50 [2]: 0.001 to 0.999 nM
EC50 [3]: 0.001 to 0.99 nM
EC50 [4]: 0.028 nM
EC50 [5]: 0.001 to 0.999 nM
EC50 [6]: 0.001 to 0.999 nM

COC[C@H]1C[C@@H](c2nc3ccc4cc5c(cc4c3[nH]2)OCc2cc(-c3ccc4nc([C@@H]6CCCN6C(=O)[C@@H](NC(=O)OC)C(C)C)[nH]c4c3)ccc2-5)N(C(=O)[C@H](NC(=O)OC)c2ccccc2)C1 [Example 556]
EC50 [1]: > 44 nM
EC50 [2]: 0.001 to 0.999 nM
EC50 [3]: 0.001 to 0.99 nM
EC50 [5]: 0.001 to 0.999 nM
EC50 [6]: > 44 nM

COC[C@H]1C[C@@H](c2nc3ccc4cc(-c5ccc(-c6[nH]c([C@@H]7CCCN7C(=O)[C@@H](NC(=O)OC)C(C)C)nc6C)cc5)ccc4c3[nH]2)N(C(=O)[C@@H](NC(=O)OC)C(C)C)C1 [Example 524]
EC50 [1]: > 44 nM
EC50 [2]: 0.001 to 0.999 nM
EC50 [3]: 0.001 to 0.99 nM
EC50 [4]: 0.02 nM
EC50 [5]: 0.001 to 0.999 nM
EC50 [6]: 1 to 44 nM

COC[C@H]1C[C@@H](c2nc3ccc4cc(-c5ccc6c(ccc7nc([C@@H]8C[C@H]9C[C@H]9N8C(=O)[C@@H](NC(=O)OC)C(C)(C)C)[nH]c76)c5)ccc4c3[nH]2)N(C(=O)[C@H](NC(=O)C2CC2)c2ccccc2)C1 [Example 532]
EC50 [1]: 0.001 to 0.999 nM
EC50 [2]: 0.001 to 0.999 nM
EC50 [3]: 0.001 to 0.99 nM
EC50 [4]: 0.009 nM
EC50 [5]: 0.001 to 0.999 nM
EC50 [6]: 0.001 to 0.999 nM

CC[C@H](C)[C@H](NC(=O)OC)C(=O)N1CCC[C@H]1c1ncc(-c2ccc(-c3ccc4c(ccc5nc([C@@H]6C[C@H](COC)CN6C(=O)[C@H](NC(=O)C6CC6)c6ccccc6)[nH]c54)c3)cc2)[nH]1 [Example 534]
EC50 [1]: 0.001 to 0.999 nM
EC50 [2]: 0.001 to 0.999 nM
EC50 [3]: 0.001 to 0.99 nM
EC50 [4]: 0.011 nM
EC50 [5]: 0.001 to 0.999 nM
EC50 [6]: 0.001 to 0.999 nM

COC[C@H]1C[C@@H](c2nc3ccc4cc5c(cc4c3[nH]2)OCc2cc(-c3ccc4nc([C@@H]6CCCN6C(=O)[C@@H](NC(=O)OC)C(C)C)[nH]c4c3)ccc2-5)N(C(=O)[C@@H](NC(=O)OC)C(C)C)C1 [Example 563]
EC50 [1]: > 44 nM
EC50 [2]: 0.001 to 0.999 nM
EC50 [3]: 0.001 to 0.99 nM
EC50 [4]: 0.007 nM
EC50 [5]: 0.001 to 0.999 nM
EC50 [6]: > 44 nM

COC[C@H]1C[C@@H](c2nc3ccc4cc(-c5ccc6c(ccc7nc([C@@H]8C[C@H](C)CN8C(=O)[C@@H](NC(=O)OC)C(C)C)[nH]c76)c5)ccc4c3[nH]2)N(C(=O)[C@H](NC(=O)C2CC(F)(F)C2)c2ccccc2)C1 [Example 542]
EC50 [1]: 0.001 to 0.999 nM
EC50 [2]: 0.001 to 0.999 nM
EC50 [3]: 0.001 to 0.99 nM
EC50 [4]: 0.05 nM
EC50 [5]: 0.001 to 0.999 nM
EC50 [6]: 0.001 to 0.999 nM

COC[C@H]1C[C@@H](c2ncc(-c3ccc(-c4ccc(-c5cnc([C@@H]6C[C@H]7C[C@H]7N6C(=O)[C@H](NC(=O)C6CC6)c6ccccc6)[nH]5)cc4)cc3)[nH]2)N(C(=O)[C@@H](NC(=O)OC)C(C)C)C1 [Example 519]
EC50 [1]: 0.001 to 0.999 nM
EC50 [2]: 0.001 to 0.999 nM
EC50 [3]: 0.001 to 0.99 nM
EC50 [4]: 0.01 nM
EC50 [5]: 0.001 to 0.999 nM
EC50 [6]: 0.001 to 0.999 nM

COC(=O)N[C@H](C(=O)N1CCC[C@H]1c1ncc(-c2cc3c4c(c2)OCc2cc(-c5cnc([C@@H]6CCCN6C(=O)[C@H](NC(=O)C6CC6)c6ccccc6)[nH]5)cc(c2-4)OC3)[nH]1)C(C)C [Example 520]
EC50 [1]: 0.001 to 0.999 nM
EC50 [2]: 0.001 to 0.999 nM
EC50 [3]: 0.001 to 0.99 nM
EC50 [4]: 0.033 nM
EC50 [5]: 0.001 to 0.999 nM
EC50 [6]: 0.001 to 0.999 nM

COC[C@H]1C[C@@H](c2nc3ccc4cc(-c5ccc(-c6cnc([C@@H]7CCCN7C(=O)[C@@H](NC(=O)OC)C(C)C)[nH]6)cc5)ccc4c3[nH]2)N(C(=O)[C@H](NC(=O)C2CCC2)c2ccccc2)C1 [Example 533]
EC50 [1]: 0.001 to 0.999 nM
EC50 [2]: 0.001 to 0.999 nM
EC50 [3]: 0.001 to 0.99 nM
EC50 [4]: 0.012 nM
EC50 [5]: 0.001 to 0.999 nM
EC50 [6]: 0.001 to 0.999 nM

COC(=O)N[C@H](C(=O)N1CCC[C@H]1c1ncc(-c2cc3c4c(c2)OCc2cc(-c5cnc([C@@H]6CCCN6C(=O)[C@H](NC(=O)C6CCC6)c6ccccc6)[nH]5)cc(c2-4)OC3)[nH]1)C(C)C [Example 521]
EC50 [1]: 0.001 to 0.999 nM
EC50 [2]: 0.001 to 0.999 nM
EC50 [3]: 0.001 to 0.99 nM
EC50 [4]: 0.028 nM
EC50 [5]: 0.001 to 0.999 nM
EC50 [6]: 0.001 to 0.999 nM
